From ChEMBL document CHEMBL1140148, “Structure-activity studies on a series of a 2-aminopyrimidine-containing histamine H4 receptor ligands” (J Med Chem, 2008)

Tests used:
[1] = biological target: Histamine H4 receptor (Rattus norvegicus) (UniProt Q91ZY1); conditions: HEK293
Histamine H4 receptor [2] = biological target: T1, Histamine H4 receptor (Homo sapiens, UniProt Q9H3N8); conditions: HEK293
Histamine H4 receptor [3] = biological target: T1, Histamine H4 receptor; assay: Agonist activity at human histamine H4 receptor expressed in HEK293 cells coexpressing Gqi5 protein assessed as calcium flux by FLIPR assay relative to histamine; type: functional, cell-based
Histamine H4 receptor [4] = biological target: T1, Histamine H4 receptor; assay: Agonist activity at human histamine H4 receptor expressed in HEK293 cells coexpressing Gqi5 protein assessed as calcium flux by FLIPR assay; type: functional, cell-based

Chain of Histamine H4 receptor (Rattus norvegicus) (Q91ZY1 whole entry): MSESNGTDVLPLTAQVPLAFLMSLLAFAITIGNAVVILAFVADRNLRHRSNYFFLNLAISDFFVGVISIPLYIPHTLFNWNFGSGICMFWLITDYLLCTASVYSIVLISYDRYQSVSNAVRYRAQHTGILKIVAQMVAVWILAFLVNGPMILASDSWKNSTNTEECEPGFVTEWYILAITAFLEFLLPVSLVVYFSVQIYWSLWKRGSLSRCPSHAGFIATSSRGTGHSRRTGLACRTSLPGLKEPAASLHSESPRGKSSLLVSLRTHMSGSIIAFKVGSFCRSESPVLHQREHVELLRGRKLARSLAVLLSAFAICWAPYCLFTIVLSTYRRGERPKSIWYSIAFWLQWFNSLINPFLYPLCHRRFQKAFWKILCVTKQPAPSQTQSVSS
T1 sequence (Q9H3N8 whole entry): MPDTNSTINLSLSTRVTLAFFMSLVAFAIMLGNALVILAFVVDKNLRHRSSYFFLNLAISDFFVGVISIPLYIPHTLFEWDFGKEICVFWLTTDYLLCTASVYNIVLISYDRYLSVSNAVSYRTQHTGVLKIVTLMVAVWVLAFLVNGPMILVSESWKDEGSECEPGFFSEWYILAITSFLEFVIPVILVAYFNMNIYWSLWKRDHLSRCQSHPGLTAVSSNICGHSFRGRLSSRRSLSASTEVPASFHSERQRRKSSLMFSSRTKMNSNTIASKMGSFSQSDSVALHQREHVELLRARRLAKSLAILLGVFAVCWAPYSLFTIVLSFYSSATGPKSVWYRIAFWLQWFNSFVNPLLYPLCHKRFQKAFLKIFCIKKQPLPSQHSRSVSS

Compound: CN1CCN(c2cc(-c3ccccc3-c3ccccc3)nc(N)n2)CC1
- pKb [1]: 5.72
- pKb (Histamine H4 receptor [2]): 6.79

Compound: CN1CCN(c2cc(-c3cccc(-c4ccccc4)c3)nc(N)n2)CC1
- pKb [1]: 6.38
- pKb (Histamine H4 receptor [2]): 6.85

Compound: CN1CCN(c2nc(N)nc(-c3ccc(C#N)cc3)c2-c2ccccc2)CC1
- pKb [1]: 5.29
- pKb (Histamine H4 receptor [2]): 5.69

Compound: CN1CCN(c2cc(-n3cnc(-c4ccccc4)c3)nc(N)n2)CC1
- pKb [1]: 5.74
- pKb (Histamine H4 receptor [2]): 5.68

Compound: CN1CCN(c2cc(-c3cccc4ccccc34)nc(N)n2)CC1
- pKb [1]: 7.27
- pKb (Histamine H4 receptor [2]): 7.81

Compound: CN1CCN(c2cc(-n3cnc4ccccc43)nc(N)n2)CC1
- Efficacy (Histamine H4 receptor [3]): 82%
- pKb [1]: 6.46
- EC50 (Histamine H4 receptor [4]): 178 nM

Compound: N#Cc1ccc(-c2cc(N3CCN(CC4CC4)CC3)nc(N)n2)cc1
- pKb [1]: 4.54
- pKb (Histamine H4 receptor [2]): 5.53
